pIC50: −log10 of the molar value. One block for each compound: values may come before it.
Assays:
Caco-2 cells = experiment: Caco-2 bidirectional permeability; format: in vitro ADME; conditions: for Caco-2 A2B (10^−6 cm/s): A to B; for Caco-2 A2B (10^−6 cm/s) / Caco-2 B2A (10^−6 cm/s): HBSS pH 7.4, 2 hours; for Caco-2 B2A (10^−6 cm/s): B to A; for Caco-2 ER: Efflux Ratio=Papp (BA)/Papp (AB)
Procedure: The compounds disclosed herein were tested in vitro on CaCo2 cell penetration according to the following procedures.
Test compounds were prepared in dimethyl sulfoxide (DMSO).
Caco-2 cells purchased from ATCC were seeded onto […] (PET) in 96-well Corning Insert plates at 1×10^5 cells/cm^2. The media were refreshed every 4 to 5 days until the 21st to 28th day for confluent cell monolayer formation.
Experiments were run in duplicate using a HBSS transport buffer containing 10 mM HEPES at pH 7.4. The test article TEST COMPOUND was tested bi-directionally at […] concentrations, the control compound digoxin was tested bi-directionally at 10 μM, and nadolol and metoprolol were tested at 2.0 μM in the A to B direction. Final DMSO concentrations were adjusted to less than 1%. The plates were incubated for 2 hours in a CO2 incubator at 37±1° C. with 5% CO2 at saturated humidity without shaking. Following incubation, samples were mixed with acetonitrile containing internal standard and centrifuged at 3200×g for 10 minutes. Then 200 μL of supernatant was taken from all samples. For TEST COMPOUND and digoxin, the supernatant was diluted with 200 μL of ultra-pure water and for nadolol and metoprolol, the supernatant was diluted with 600 μL of ultra-pure water. All samples were analyzed by LC-MS/MS. Concentrations of TEST COMPOUND and control compounds were determined in starting solutions, donor well solutions, and receiver well solutions using peak area ratios (PAR) of analyte to internal standard. After the transport assay, a lucifer yellow rejection assay was run to determine the Caco-2 cell monolayer integrity.
The apparent permeability (Papp), the % recovery and the efflux ratio were calculated as follows: • 1. Papp=(dCr/dt)×Vr/(A×C0) • 2. % Recovery=100×[(Vr×Cr)+(Vd×Cd)]/(Vd×C0) • 3. Efflux Ratio=Papp (BA)/Papp (AB) • Where: • dCr/dt is the slope of the cumulative concentration in the receiver compartment versus time (mM/s). • Vr and Vd is the volume in the receiver and donor compartments (0.075 mL on the apical side, 0.25 mL on the basolateral side), respectively. • A is the surface area of the cell monolayer (0.0804 cm^2). • C0 is the measured donor concentrations (μM) at the beginning of the experiment. • Cd and Cr are the final measured concentrations in the donor and receiver compartments, respectively.
The cell monolayer tight junction integrity assay was conducted after completion of the transport assay by adding Lucifer Yellow (LY) to the apical wells at 100 μM and incubating the cells for 30 minutes. Following incubation, tight junction integrity was assessed from LY concentrations in the basolateral compartment (receiver well) and the apical compartment (donor well) using fluorescence detection as follows: […]

[1] = Human hepatocyte stability, in vitro h-Hept CLpredict; format: in vitro ADME; conditions: cryopreserved hepatocytes, predicted hepatic clearance, cells without asterisk, read-out: hHep Cl
Procedure: The compounds disclosed herein were tested in vitro on human hepatocyte for in vitro h-Hept CLpredict according to the following procedures. • 1. Compound sock solutions were prepared by dissolving test compound and positive control in dimethyl sulfoxide (DMSO) at a concentration of 10 mM. Stock solutions were then diluted to 100 μM solutions by combining 198 μL of 50% acetonitrile/50% water with 2 μL of the 10 mM stock stock in separate conical tubes. • 2. Cryopreserved hepatocytes were prepared as follows: Incubation medium (William's E Medium supplemented with GlutaMAX) and hepatocyte thawing medium were placed in a 37° C. water bath and allowed to warm for at least 15 minutes prior to use. Cryopreserved hepatocytes were removed from storage, ensuring that vials remained at cryogenic temperatures until thawed. Cells were thawed by placing the vials in a 37° C. water bath and gently shaking the vials for 2 minutes. After thawing was completed, vials were sprayed with 70% ethanol and transferred to a biosafety cabinet. Hepatocytes were transferred into 50 mL conical tube containing thawing medium using wide-bore pipette tips. Tubes were placed into a centrifuge and spun at 100 g for 10 minutes. Then thawing medium was aspirated and hepatocytes were resuspended in enough incubation medium to yield−1.5×10^6 cells/mL. Cells were counted using acridine orange and propidium iodide (AO/PI) staining, and the viable cell density was determined. Cells were diluted with incubation medium to a working cell density of 0.5×10^6 viable cells/mL. • 3. To determine hepatocyte stability, 198 μL of hepatocytes were transferred into each well of a 96-well non-coated plate. Plates were placed in an incubator to allow the hepatocytes to warm for 10 minutes. • 4. The reaction was started by transferring 2 μL of the 100 μM test compound or positive control solution into respective wells of the 96-well non-coated plates. Plates were returned to the incubator until 25 μL aliquots of well contents were sampled at time points of 0, 15, 30, 60, 90 and 120 minutes. The aliquots were then mixed with 6 volumes (150 μL) of acetonitrile containing internal standard, IS (100 nM alprazolam, 200 nM caffeine and 100 nM tolbutamide) to terminate the reaction and vortexed for 5 minutes. After centrifuging the samples for 45 minutes at 3,220 g, aliquots of 100 μL of the supernatant were taken and diluted with 100 μL of ultra-pure water. The mixture was used for LC/MS/MS analysis. All incubations were performed in duplicate.
All calculations were carried out using Microsoft Excel. Peak area ratios (PAR) were determined from extracted ion chromatograms. The in vitro half-life (t1/2) of parent compound was determined by regression analysis of the percent parent disappearance vs. time curve as follows:
The in vitro half-life (in vitro t1/2) was determined from the slope value:
Conversion of the in vitro t1/2 (in minutes) into the in vitro intrinsic clearance (in vitro CLint, in μL/min/1×10^6 cells) was done using the following equation (mean of duplicate determinations): […]
The scaled-up intrinsic clearance (CLint, mL/min/kg), predicted hepatic clearance (CLH, mL/min/kg) and hepatic extraction ratio (ER) were calculated using the following equations:
CLint=(0.693/t1/2)*(1/(hepatocyte concentration (0.5*10^6 cells/mL))*scaling factors (Table (A)
• CLHept-predict=(QH*Scaled-up CLint*fub)/(QH+Scaled-up CLint*fub) • ER=CLH/QH • Where: • V=incubation volume (0.2 mL) • N=number of hepatocytes per well (0.1*10^6 cells) • QH=hepatic blood flow (mL/min/kg) (Table (A)
• fub=fraction of unbound drug in plasma, assumed to be 1 • Values used for calculation of the predicted hepatic clearance parameters data processing rules are outlined in the following tables (A) (B)

[2] = target: T1, wt human LRRK2, catalytic site (Homo sapiens, UniProt Q5S007); experiment: TR-FRET LanthaScreen Tb Kinase Activity Assay, LRRK2 kinase inhibition; format: biochemical; conditions: 2 nM wt human LRRK2, 400 nM peptide, 38 μM ATP
T1 construct: wt human LRRK2, catalytic site, catalytic site (ThermoFisher/USA); purchased ThermoFisher
T1 sequence (Q5S007 1879-2138 limits assumed): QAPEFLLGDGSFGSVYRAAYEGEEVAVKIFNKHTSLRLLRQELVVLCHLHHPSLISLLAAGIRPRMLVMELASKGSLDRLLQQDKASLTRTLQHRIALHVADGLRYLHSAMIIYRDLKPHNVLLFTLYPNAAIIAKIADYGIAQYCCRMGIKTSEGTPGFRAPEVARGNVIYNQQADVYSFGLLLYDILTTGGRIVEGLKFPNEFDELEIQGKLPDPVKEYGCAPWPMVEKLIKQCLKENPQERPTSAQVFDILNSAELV
Procedure: The compounds disclosed herein were tested for their inhibitory effect on LRRK2 kinase according to the following procedures.
The protocol for basic TR-FRET LanthaScreen Tb Kinase Activity Assay inhibitor studies is as follows. LanthaScreen Kinase Activity Assays (ThermoFisher/USA) to evaluate inhibitors were performed by addition of 100 nL of test compound in the corresponding DMSO dilutions/5 L of kinase/fluorescein-ERM(LRRKtide) peptide mixture, Compound & kinase were pre-incubated for 15 minutes, then 5 μl of ATP into 384 well small volume plates. After incubation for 120 minutes at room temperature, the detection reagents containing Tb-anti-pLRRKtide antibody were added to monitor the phosphrylation level of peptide. Then, after 60 min minutes incubation at room temperature plates were read in Envision. Data analysis of emission ratios was according to the LanthaScreen Tb Kinase Activity Assay protocol.
Kinase and assay components were adjusted to final concentrations according to the kit protocol. For LRRK2: 2 nM wt human LRRK2, catalytic site, catalytic site (ThermoFisher/USA), 400 nM peptide, 38 μM ATP in 1× Kinase Buffer A.
Basic protocol for TR-FRET LanthaScreen Tb Kinase Activity Assay inhibitor studies involved two steps: Enzymatic step: Addition of 100 nl of test compound in corresponding DMSO dilutions, 5 μl of kinase/substrate mixture, 5 μl of ATP into 384 well small volume plates. Incubation for 120 minutes at room temperature.
Detection step: Addition of 10 μl EDTA & antibody, read plate after 60 minutes. Data analysis of emission ratios according to KinEASE assay protocol.
Kinase and assay components were adjusted to final concentrations according to the kit protocol.

Compound: Cc1n[nH]c2c1N=C(c1c(F)cccc1F)Nc1ccc(N3C[C@H](C)O[C@@H](C)C3)cc1-2 [Example 24, (2S,6S)-4-(5-(2,6-difluorophenyl)-3-methyl-1,6-dihydrobenzo[d]pyrazolo[3,4-f][1,3]diazepin-9-yl)-2,6-dimethylmorpholine]
Caco-2 A2B (10^−6 cm/s) (Caco-2 cells): H (H (High permeability)”: A2B (B2A)>5)
Caco-2 B2A (10^−6 cm/s) (Caco-2 cells): H (H (High permeability)”: A2B (B2A)>5)
Caco-2 ER (Caco-2 cells): N (N (Non-substrate)”: ER<2.5)
CLhep predicted at 1 µM [1]: 6.3 to 14.7 mL/min/kg
pIC50 [2]: > 8.70

Compound: Cc1n[nH]c2c1N=C(c1c(F)cccc1F)Nc1cnc(NCc3ccc(F)cc3F)cc1-2 [Example 16, N-(2,4-difluorobenzyl)-5-(2,6-difluorophenyl)-3-methyl-1,6-dihydropyrazolo[4,3-d]pyrido[4,3-f][1,3]diazepin-9-amine]
Caco-2 A2B (10^−6 cm/s) (Caco-2 cells): H (H (High permeability)”: A2B (B2A)>5)
Caco-2 B2A (10^−6 cm/s) (Caco-2 cells): H (H (High permeability)”: A2B (B2A)>5)
Caco-2 ER (Caco-2 cells): N (N (Non-substrate)”: ER<2.5)
CLhep predicted at 1 µM [1]: 6.3 to 14.7 mL/min/kg
pIC50 [2]: > 8.70

Compound: Cc1n[nH]c2c1N=C(c1c(F)cccc1F)Nc1cnc(N3CC(F)(F)C3)cc1-2 [Example 2, 13-(3,3-difluoroazetidin-1-yl)-8-(2,6-difluorophenyl)-5-methyl-3,4,7,9,12-pentazatricyclo[8.4.0.02,6]tetradeca-1(10),2(6),4,7,11,13-hexaene]
Caco-2 A2B (10^−6 cm/s) (Caco-2 cells): H (H (High permeability)”: A2B (B2A)>5)
Caco-2 B2A (10^−6 cm/s) (Caco-2 cells): H (H (High permeability)”: A2B (B2A)>5)
Caco-2 ER (Caco-2 cells): N (N (Non-substrate)”: ER<2.5)
CLhep predicted at 1 µM [1]: 6.3 to 14.7 mL/min/kg
pIC50 [2]: > 8.70

Compound: Cc1n[nH]c2c1N=C(c1c(F)cccc1F)Nc1cnc(N3CCC(F)CC3)cc1-2 [Example 3, 8-(2,6-difluorophenyl)-13-(4-fluoro-1-piperidyl)-5-methyl-3,4,7,9,12-pentazatricyclo[8.4.0.02,6]tetradeca-1(10),2(6),4,7,11,13-hexaene]
Caco-2 A2B (10^−6 cm/s) (Caco-2 cells): H (H (High permeability)”: A2B (B2A)>5)
Caco-2 B2A (10^−6 cm/s) (Caco-2 cells): H (H (High permeability)”: A2B (B2A)>5)
Caco-2 ER (Caco-2 cells): N (N (Non-substrate)”: ER<2.5)
CLhep predicted at 1 µM [1]: 6.3 to 14.7 mL/min/kg
pIC50 [2]: > 8.70

The next lines start with the values.

Caco-2 A2B (10^−6 cm/s) (Caco-2 cells): H (H (High permeability)”: A2B (B2A)>5)
Caco-2 B2A (10^−6 cm/s) (Caco-2 cells): H (H (High permeability)”: A2B (B2A)>5)
Caco-2 ER (Caco-2 cells): N (N (Non-substrate)”: ER<2.5)
CLhep predicted at 1 µM [1]: 6.3 to 14.7 mL/min/kg
pIC50 [2]: > 8.70
Compound: Cc1n[nH]c2c1N=C(c1c(F)cccc1F)Nc1c-2cc(N2CCC(C)(C#N)CC2)nc1C [Example 43, 1-[8-(2,6-difluorophenyl)-5,11-dimethyl-3,4,7,9,12-pentazatricyclo[8.4.0.02,6]tetradeca-1(10),2(6),4,7,11,13-hexaen-13-yl]-4-methyl-piperidine-4-carbonitrile]

Caco-2 A2B (10^−6 cm/s) (Caco-2 cells): H (H (High permeability)”: A2B (B2A)>5)
Caco-2 B2A (10^−6 cm/s) (Caco-2 cells): H (H (High permeability)”: A2B (B2A)>5)
Caco-2 ER (Caco-2 cells): N (N (Non-substrate)”: ER<2.5)
CLhep predicted at 1 µM [1]: 6.3 to 14.7 mL/min/kg
pIC50 [2]: > 8.70
Compound: Cc1n[nH]c2c1N=C(c1c(F)cccc1F)Nc1cnc(-c3ccc(C(F)(F)F)nc3)cc1-2 [Example 58, 8-(2,6-difluorophenyl)-5-methyl-13-[6-(trifluoromethyl)-3-pyridyl]-3,4,7,9,12-pentazatricyclo[8.4.0.0^2,6]tetradeca-1(10),2(6),4,7,11,13-hexaene]

Caco-2 A2B (10^−6 cm/s) (Caco-2 cells): H (H (High permeability)”: A2B (B2A)>5)
Caco-2 B2A (10^−6 cm/s) (Caco-2 cells): H (H (High permeability)”: A2B (B2A)>5)
Caco-2 ER (Caco-2 cells): N (N (Non-substrate)”: ER<2.5)
CLhep predicted at 1 µM [1]: > 14.7 mL/min/kg
pIC50 [2]: > 8.70
Compound: Cc1n[nH]c2c1N=C(c1c(F)cccc1F)Nc1cnc(N3CC4CC4C3)cc1-2 (stereo not shown) [Example 56, 13-(3-azabicyclo[3.1.0]hexan-3-yl)-8-(2,6-difluorophenyl)-5-methyl-3,4,7,9,12-pentazatricyclo[8.4.0.02,6]tetradeca-1(10),2(6),4,7,11,13-hexaene]

Caco-2 A2B (10^−6 cm/s) (Caco-2 cells): H (H (High permeability)”: A2B (B2A)>5)
Caco-2 B2A (10^−6 cm/s) (Caco-2 cells): H (H (High permeability)”: A2B (B2A)>5)
Caco-2 ER (Caco-2 cells): N (N (Non-substrate)”: ER<2.5)
CLhep predicted at 1 µM [1]: 6.3 to 14.7 mL/min/kg
pIC50 [2]: > 8.70
Compound: Cc1cc(-c2ccc3c(c2)-c2[nH]nc(C)c2N=C(c2c(F)cccc2F)N3)ccn1 [Example 52, 5-(2,6-difluorophenyl)-3-methyl-9-(2-methyl-4-pyridyl)-1,6-dihydropyrazolo [4,3-d] [1, 3] benzodiazepine]

Source: patent US20240208972A1, “LRRK2 INHIBITORS AND USES THEREOF” (NEURON23, INC., priority 2022, published 2024)
